Reference: US20170152226A1, “FUNCTIONALISED AND SUBSTITUTED INDOLES AS ANTI-CANCER AGENTS” (Novogen Ltd., priority 2014, published 2017)
pIC50: −log10 of the molar value.

Assays:
THP-1 = assay: Anti-proliferative activity, MTS viability assay; assay type: cell-based; conditions: Homo sapiens, 72 hours exposure, read-out: IC50 Leukemia THP-1
Procedure: (§1) The anti-proliferative activity of compound 3507 was further evaluated in cell lines representative of melanoma, prostate cancer, leukaemia and neuroblastoma. Cell viability after 72 hours exposure to increasing concentrations of compound 3507 was measured using an MTS viability assay. Cell viability was normalized to control (vehicle alone) and dose-response curves, and relative inhibitory concentration (IC50) values were determined using GraphPad Prism 6.

BL = assay: Anti-proliferative activity, MTS viability assay; assay type: cell-based; conditions: 72 hours exposure, read-out: IC50 Melanoma BL
Procedure: as §1

SK-N-Be(2) = assay: Anti-proliferative activity, MTS viability assay; assay type: cell-based; conditions: Homo sapiens, SKNBE2, 72 hours exposure, read-out: IC50 Neuroblastoma SK-N-Be(2)
Procedure: as §1

P4E6 = assay: Anti-proliferative activity, MTS viability assay; assay type: cell-based; conditions: 72 hours exposure, read-out: IC50 Prostate P4E6
Procedure: as §1

MM415 = assay: Anti-proliferative activity, MTS viability assay; assay type: cell-based; conditions: 72 hours exposure, read-out: IC50 Melanoma MM415
Procedure: as §1

A2058 = assay: Anti-proliferative activity, MTS viability assay; assay type: cell-based; conditions: Homo sapiens, 72 hours exposure, read-out: IC50 Melanoma A2058
Procedure: as §1

LNCaP = assay: Anti-proliferative activity, MTS viability assay; assay type: cell-based; conditions: Homo sapiens, 72 hours exposure, read-out: IC50 Prostate LNCaP
Procedure: as §1

CHLA-20 = assay: Anti-proliferative activity, MTS viability assay; assay type: cell-based; conditions: 72 hours exposure, read-out: IC50 Neuroblastoma CHLA-20
Procedure: as §1

SKMEL13 = assay: Anti-proliferative activity, MTS viability assay; assay type: cell-based; conditions: 72 hours exposure, read-out: IC50 Melanoma SKMEL13
Procedure: as §1

HL-60 = assay: Anti-proliferative activity, MTS viability assay; assay type: cell-based; conditions: Homo sapiens, 72 hours exposure, read-out: IC50 Leukemia HL-60
Procedure: as §1

BPH-1 = assay: Anti-proliferative activity, MTS viability assay; assay type: cell-based; conditions: Homo sapiens, 72 hours exposure, read-out: IC50 Prostate BPH-1
Procedure: as §1

CHLA-90 = assay: Anti-proliferative activity, MTS viability assay; assay type: cell-based; conditions: 72 hours exposure, read-out: IC50 Neuroblastoma CHLA-90
Procedure: as §1

MM329 = assay: Anti-proliferative activity, MTS viability assay; assay type: cell-based; conditions: 72 hours exposure, read-out: IC50 Melanoma MM329
Procedure: as §1

MM96L = assay: Anti-proliferative activity, MTS viability assay; assay type: cell-based; conditions: Homo sapiens, 72 hours exposure, read-out: IC50 Melanoma MM96L
Procedure: as §1

K562 = assay: Anti-proliferative activity, MTS viability assay; assay type: cell-based; conditions: Homo sapiens, 72 hours exposure, read-out: IC50 Leukemia K562
Procedure: as §1

D20 = assay: Anti-proliferative activity, MTS viability assay; assay type: cell-based; conditions: 72 hours exposure, read-out: IC50 Melanoma D20
Procedure: as §1

CHP-134 = assay: Anti-proliferative activity, MTS viability assay; assay type: cell-based; conditions: Homo sapiens, 72 hours exposure, read-out: IC50 Neuroblastoma CHP-134
Procedure: as §1

CHLA20 tumours = assay: CHLA20 neuroblastoma xenograft model; assay type: in vivo; conditions: 150 mg/kg IP daily, 18 days
Procedure: FIG. 4: Compound 3507/30% w/v Dexolve-7 was administered IP daily at 150 mg/kg for 18 days in a flank xenograft model of neuroblastoma (CHLA-20). Tumour volume was measured every 2-3 days.
The in vivo efficacy of compound 3507 was evaluated in the CHLA20 neuroblastoma xenograft model. CHLA20 tumours were established in athymic nude mice by injecting 1.0×10^7 tumour cells subcutaneously in the right flank. Dosing of animals commenced when tumour volume reached ˜200-400 mm^3. Animals (˜n=5+) were randomly divided into treatment and control groups. Compound 3507 was dosed daily by intraperotineal (IP) injection at 150 mg/kg in 30% w/v Captisol (a cyclodextrin-containing formulation).

IL-21 = assay: Inhibition of cytokine release from PBMCs (HTRF); assay type: cell-based; conditions: PBMC, human PBMCs, PMA and ionomycin stimulated
Procedure: (§2) The ability of compounds 3507, 3520, 3534 and 3538 to inhibit the release of cytokines TNF-α, IFN-γ, IL-6, IL-21, IL-17A and IL-23 was evaluated in vitro (Tables 4 and 5). Briefly, human peripheral blood mononuclear cells (PBMCs) were isolated from human peripheral blood by Histopaque density gradient centrifugation. The freshly isolated PBMCs were seeded at 50,000 cells/well in a 96-well half area plate. PBMCs were dosed with the test compounds (at 10 μM, 1 μM and 0.1 μM) and then incubated at 37° C. and 5% CO2 for 2 hours. To stimulate release of the cytokines IFN-γ, IL-21, IL-17A and IL-23, the PBMCs were treated with 50 ng/mL of phorbol 12-myristate 13-acetate (PMA) and 1 μg/mL of ionomycin and to stimulate the release of TNF-α and IL-6, PBMCs were treated with 100 ng/mL of lipopolysaccharide (LPS) from gram-negative bacteria. The PBMCs were then incubated at 37° C. and 5% CO2 for a further 6 hours and the cell supernatant was collected and a Homogenous Time Resolved Fluorescence (HTRF) assay was carried out following the manufacturer's instructions. Cytokine release from the PBMCs was captured using a Perkin Elmer ENVISION 2104 microplate reader set at 615 nm and 665 nm respectively.

IL-6 = assay: Inhibition of cytokine release from PBMCs (HTRF); assay type: cell-based; conditions: PBMC, human PBMCs, LPS stimulated
Procedure: as §2

IL-23 = assay: Inhibition of cytokine release from PBMCs (HTRF); assay type: cell-based; conditions: PBMC, human PBMCs, PMA and ionomycin stimulated
Procedure: as §2

TNF-α = assay: Inhibition of cytokine release from PBMCs (HTRF); assay type: cell-based; conditions: PBMC, human PBMCs, LPS stimulated
Procedure: as §2

IFN-γ = assay: Inhibition of cytokine release from PBMCs (HTRF); assay type: cell-based; conditions: PBMC, human PBMCs, PMA and ionomycin stimulated
Procedure: as §2

IL-17A = assay: Inhibition of cytokine release from PBMCs (HTRF); assay type: cell-based; conditions: PBMC, human PBMCs, PMA and ionomycin stimulated
Procedure: as §2

What does the source list for `Cc1c(C)n(CCCN2CCN(C)CC2)c2ccc(Oc3cccc(C(=O)N4CCN(CCc5ccc(F)cc5)CC4)c3)cc12` [Compound 3507, (3-((2,3-dimethyl-1-(3-(4-methylpiperazin-1-yl)propyl)-1H-indol-5-yl)oxy)phenyl)(4-(4-fluorophenethyl)piperazin-1-yl)methanone]?
pIC50 (THP-1): 6.10; pIC50 (BL): 5.23; pIC50 (SK-N-Be(2)): 5.26; pIC50 (P4E6): 6.06; pIC50 (MM415): 5.33; pIC50 (A2058): 5.39; pIC50 (LNCaP): 6.23; pIC50 (CHLA-20): 5.16; pIC50 (SKMEL13): 5.43; pIC50 (HL-60): 5.94; pIC50 (BPH-1): 6.14; pIC50 (CHLA-90): 5.37; pIC50 (MM329): 5.42; pIC50 (MM96L): 5.49; pIC50 (K562): 6.02; pIC50 (D20): 5.30; pIC50 (CHP-134): 5.14; tolerability (CHLA20 tumours): well tolerated; inhibition at 0.1 µM (IL-21; 0.1 μM): -6%; inhibition at 1 µM (IL-21; 1 μM): 5%; inhibition at 10 µM (IL-21; 10 μM): 19%; inhibition at 0.1 µM (IL-6; 0.1 μM): -9%; inhibition at 1 µM (IL-6; 1 μM): 21%; inhibition at 10 µM (IL-6; 10 μM): 68%; inhibition at 0.1 µM (IL-23; 0.1 μM): -7%; inhibition at 1 µM (IL-23; 1 μM): 0%; inhibition at 10 µM (IL-23; 10 μM): 20%; inhibition at 0.1 µM (TNF-α; 0.1 μM): 52%; inhibition at 1 µM (TNF-α; 1 μM): 68%; inhibition at 10 µM (TNF-α; 10 μM): 90%; inhibition at 0.1 µM (IFN-γ; 0.1 μM): 16%; inhibition at 1 µM (IFN-γ; 1 μM): 42%; inhibition at 10 µM (IFN-γ; 10 μM): 77%; inhibition at 0.1 µM (IL-17A; 0.1 μM): 2%; inhibition at 1 µM (IL-17A; 1 μM): 4%; inhibition at 10 µM (IL-17A; 10 μM): 13%
